In ChEMBL document CHEMBL2150934, “Identification of a potent and metabolically stable series of fluorinated diphenylpyridylethanamine-based cholesteryl ester transfer protein inhibitors” (Bioorg Med Chem Lett, 2012):

Experiments:
Type in all cases: ADME, organism-based
[1] = AUC (0 to 8 hrs) in transgenic mouse expressing human CETP/apoB100 at 30 mg/kg, po; design: time < 8 hr, dose 30 mg/kg, route oral; conditions: plasma
[2] = Plasma concentration in transgenic mouse expressing human CETP/apoB100 at 30 mg/kg, po at 2 hrs; design: dose 30 mg/kg, route oral
[3] = Plasma concentration in transgenic mouse expressing human CETP/apoB100 at 30 mg/kg, po at 4 hrs; design: dose 30 mg/kg, route oral
[4] = Plasma concentration in transgenic mouse expressing human CETP/apoB100 at 30 mg/kg, po at 8 hrs; design: dose 30 mg/kg, route oral

O=C(N[C@@H]1CCC(F)(F)C1)N[C@@](Cc1ccccc1)(c1cc(F)cc(OC(F)(F)C(F)F)c1)c1ccc(Cl)cn1
AUC(0-t) at 8 h [1]: 3.2 µM·h
concentration at 2 h [2]: 1070 nM
concentration at 4 h [3]: 249 nM
concentration at 8 h [4]: 112 nM
